Read-outs that look alike come from different tables or passages of the source. Starred links: 1 amine or outer side, 2 acyl side, 3 side chain; linkers in the order of their positions; H or OH if unused. Positions of bridges follow the written chain, without caps; N, C: chain ends. Residues, ends and D or L forms follow the SMILES beside them. *: point of attachment. C18 diacid = O=C(O)CCCCCCCCCCCCCCCCC(=O)*; γGlu = O=C(O)[C@H](CCC(=O)[*:2])N[*:1]; AEEA = NCCOCCOCC(=O)O

Experimental findings from US20240209028A1, “CNP COMPOUNDS” (priority 2022, published 2024) are described below.

This data set can be described thus: PK of CNP compounds after i.v. and s.c. administration to rats. The settings on record: male, Sprague Dawley, in vivo, rat; for clearance: read-out: Cl (L/hr/kg), i.v. administration (converted); for bioavailability: s.c. bioavailability, read-out: F (%), s.c. administration. In outline:
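Male Sprague Dawley rats (n=4-6) were dosed at 300 nmol/kg s.c. or 100 nmol/kg i.v., formulated at pH 7.4 or 4.0, and sampled up to 72 h. Plasma levels were measured by TF-LC-MS against calibrators from 0.5 to 2000 nM. Non-compartmental PK used dose-normalized AUC for bioavailability, with values given as means.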

Setting [1] is: iv, i.v., about 100 nmol/kg, read-out: T½ (hr), i.v. administration (converted).
[2] abbreviates: sc, s.c., about 300 nmol/kg, read-out: T½ (hr), s.c. administration (converted).

In the case of `CC[C@H](C)[C@@H]1NC(=O)[C@H](CCCNC(=N)N)NC(=O)[C@H](CC(=O)O)NC(=O)[C@H](CC(C)C)NC(=O)[C@@H]2CCCN2C(=O)[C@H](CC(C)C)NC(=O)CNC(=O)[C@H](Cc2ccccc2)NC(=O)[C@@H](NC(=O)CNC(=O)[C@H](CCCCN)NC(=O)[C@H](CO)NC(=O)[C@H](CC(C)C)NC(=O)CNC(=O)[C@H](CCCCN)NC(=O)[C@H](CCCCN)NC(=O)[C@H](CCC(N)=O)NC(=O)[C@H](C)NC(=O)CNC(=O)[C@H](CCC(=O)O)NC(=O)[C@H](Cc2ccc(O)cc2)NC(=O)COCCOCCNC(=O)COCCOCCNC(=O)CC[C@H](NC(=O)CCCCCCCCCCCCCCCCC(=O)O)C(=O)O)CSSC[C@@H](C(=O)O)NC(=O)CNC(=O)[C@H](CC(C)C)NC(=O)CNC(=O)[C@H](CO)NC(=O)[C@H](CC(C)C)NC(=O)[C@H](CO)NC(=O)CNC1=O` [compound 1225] ({C18 diacid-γGlu-AEEA-AEEA}-YEGAQKKGLSKGCFGLPLDRIGSLSGLGC-OH; disulfide 13-29), the clearance (iv, i.v., about 100 nmol/kg) was 0.0103 L/h/kg. The half-life is, setting by setting: under setting [1], 5.03 h; under setting [2], 5.1 h. Besides, where the note is “sc, about 300 nmol/kg”, the bioavailability is 61.2%.
As for `CC[C@H](C)[C@@H]1NC(=O)[C@H](CCCNC(=N)N)NC(=O)[C@H](CC(=O)O)NC(=O)[C@H](CC(C)C)NC(=O)[C@@H]2CCCN2C(=O)[C@H](CC(C)C)NC(=O)CNC(=O)[C@H](Cc2ccccc2)NC(=O)[C@@H](NC(=O)CNC(=O)[C@H](CCCCN)NC(=O)[C@H](CO)NC(=O)[C@@H](NC(=O)CNC(=O)[C@@H](NC(=O)[C@H](Cc2c[nH]cn2)NC(=O)[C@H](CCC(N)=O)NC(=O)[C@H](C)NC(=O)CNC(=O)[C@H](Cc2c[nH]cn2)NC(=O)[C@H](Cc2ccc(O)cc2)NC(=O)[C@H](CCCCN)NC(=O)[C@H](CCCNC(=N)N)NC(=O)[C@H](C)NC(=O)COCCOCCNC(=O)COCCOCCNC(=O)CC[C@H](NC(=O)CC[C@H](NC(=O)CC[C@H](NC(=O)CCCCCCCCCCCCCCCCC(=O)O)C(=O)O)C(=O)O)C(=O)O)[C@@H](C)O)C(C)C)CSSC[C@@H](C(=O)O)NC(=O)CNC(=O)[C@H](CC(C)C)NC(=O)CNC(=O)[C@H](CO)NC(=O)[C@H](CC(C)C)NC(=O)[C@H](CO)NC(=O)CNC1=O` [compound 1420] ({C18 diacid-γGlu-γGlu-γGlu-AEEA-AEEA}-ARKYHGAQHTGVSKGCFGLPLDRIGSLSGLGC-OH; disulfide 16-32), the clearance (iv, i.v., about 100 nmol/kg) was 0.00764 L/h/kg. Moreover, the half-life runs as follows: under setting [1], 8.34 h; under setting [2], 9.47 h. The bioavailability (sc, about 300 nmol/kg) worked out at 49.7%.
With `CC[C@H](C)[C@@H]1NC(=O)[C@H](CCCNC(=N)N)NC(=O)[C@H](CC(=O)O)NC(=O)[C@H](CC(C)C)NC(=O)[C@@H]2CCCN2C(=O)[C@H](CC(C)C)NC(=O)CNC(=O)[C@H](Cc2ccccc2)NC(=O)[C@@H](NC(=O)CNC(=O)[C@H](CO)NC(=O)[C@H](CO)NC(=O)[C@H](CC(C)C)NC(=O)CNC(=O)[C@H](CCCCN)NC(=O)[C@H](CCCCN)NC(=O)[C@H](CCC(N)=O)NC(=O)[C@H](C)NC(=O)CNC(=O)[C@H](Cc2c[nH]cn2)NC(=O)[C@H](Cc2ccc(O)cc2)NC(=O)COCCOCCNC(=O)COCCOCCNC(=O)CC[C@H](NC(=O)CCCCCCCCCCCCCCCCC(=O)O)C(=O)O)CSSC[C@@H](C(=O)O)NC(=O)CNC(=O)[C@H](CC(C)C)NC(=O)CNC(=O)[C@H](CO)NC(=O)[C@H](CC(C)C)NC(=O)[C@H](CO)NC(=O)CNC1=O` [compound 1241] ({C18 diacid-γGlu-AEEA-AEEA}-YHGAQKKGLSSGCFGLPLDRIGSLSGLGC-OH; disulfide 13-29), the clearance (iv, i.v., about 100 nmol/kg) is 0.0164 L/h/kg. Moreover, under setting [1], the half-life was 2.78 h.
Consider `CC[C@H](C)[C@@H]1NC(=O)[C@H](CCCNC(=N)N)NC(=O)[C@H](CC(=O)O)NC(=O)[C@H](CC(C)C)NC(=O)[C@@H]2CCCN2C(=O)[C@H](CC(C)C)NC(=O)CNC(=O)[C@H](Cc2ccccc2)NC(=O)[C@@H](NC(=O)CNC(=O)[C@H](CO)NC(=O)[C@H](CO)NC(=O)[C@H](CC(C)C)NC(=O)CNC(=O)[C@H](CCCCN)NC(=O)[C@H](CCCCN)NC(=O)[C@H](CCC(N)=O)NC(=O)[C@H](C)NC(=O)CNC(=O)[C@H](CCC(=O)O)NC(=O)[C@H](Cc2ccc(O)cc2)NC(=O)COCCOCCNC(=O)COCCOCCNC(=O)CC[C@H](NC(=O)CCCCCCCCCCCCCCCCC(=O)O)C(=O)O)CSSC[C@@H](C(=O)O)NC(=O)CNC(=O)[C@H](CC(C)C)NC(=O)CNC(=O)[C@H](CO)NC(=O)[C@H](CC(C)C)NC(=O)[C@H](CO)NC(=O)CNC1=O` [compound 1227] ({C18 diacid-γGlu-AEEA-AEEA}-YEGAQKKGLSSGCFGLPLDRIGSLSGLGC-OH; disulfide 13-29), for which the clearance (iv, i.v., about 100 nmol/kg) is 0.0168 L/h/kg. Also, under setting [1], the half-life was 3.56 h.
The corresponding values for `CC[C@H](C)[C@@H]1NC(=O)[C@H](CCCNC(=N)N)NC(=O)[C@H](CC(=O)O)NC(=O)[C@H](CC(C)C)NC(=O)[C@@H]2CCCN2C(=O)[C@H](CC(C)C)NC(=O)CNC(=O)[C@H](Cc2ccccc2)NC(=O)[C@@H](NC(=O)CNC(=O)[C@H](CO)NC(=O)[C@H](CO)NC(=O)[C@@H](NC(=O)CNC(=O)[C@@H](NC(=O)[C@H](Cc2c[nH]cn2)NC(=O)[C@H](CCC(N)=O)NC(=O)[C@H](C)NC(=O)CNC(=O)[C@H](Cc2c[nH]cn2)NC(=O)[C@H](Cc2ccc(O)cc2)NC(=O)[C@H](CCCCN)NC(=O)[C@H](CCCNC(=N)N)NC(=O)[C@H](C)NC(=O)COCCOCCNC(=O)COCCOCCNC(=O)CC[C@H](NC(=O)CCCCCCCCCCCCCCCCC(=O)O)C(=O)O)[C@@H](C)O)C(C)C)CSSC[C@@H](C(=O)O)NC(=O)CNC(=O)[C@H](CC(C)C)NC(=O)CNC(=O)[C@H](CO)NC(=O)[C@H](CC(C)C)NC(=O)[C@H](CO)NC(=O)CNC1=O` [compound 1351] ({C18 diacid-γGlu-AEEA-AEEA}-ARKYHGAQHTGVSSGCFGLPLDRIGSLSGLGC-OH; disulfide 16-32) are 0.0093 L/h/kg and 6.07 h.
